Source: PubChem BioAssay (NCI)
Several values for one entry are separate records, joined by “and”; a condition that tells them apart may be missing. Equal values may be shown once.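 Following 48 hours of exposure in 96-well plates, responses at five concentrations were used to interpolate endpoints linearly. GI50 = concentration required for 50% inhibition of growth. The concentration for full growth arrest is given as TGI.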

Experiments:
Assay in all cases: NCI-60 cell line screen, 48 h
OVCAR-5 ovarian = tested on: OVCAR-5 ovarian
MDA-MB-435 = tested on: MDA-MB-435
HS 578T breast = tested on: HS 578T breast
MOLT-4 leukemia = tested on: MOLT-4 leukemia
OVCAR-4 ovarian = tested on: OVCAR-4 ovarian
MDA-MB-231 breast = tested on: MDA-MB-231 breast
MALME-3M melanoma = tested on: MALME-3M melanoma
RPMI-8226 leukemia = tested on: RPMI-8226 leukemia
HL-60(TB) leukemia = tested on: HL-60(TB) leukemia
SNB-19 CNS = tested on: SNB-19 CNS
SF-539 CNS = tested on: SF-539 CNS
U251 CNS = tested on: U251 CNS

| SMILES | GI50 (OVCAR-5 ovarian) | TGI (OVCAR-5 ovarian) | TGI (MDA-MB-435) | GI50 (HS 578T breast) | TGI (HS 578T breast) | GI50 (MOLT-4 leukemia) | TGI (MOLT-4 leukemia) | TGI (OVCAR-4 ovarian) | TGI (MDA-MB-231 breast) | GI50 (MALME-3M melanoma) | TGI (MALME-3M melanoma) | GI50 (RPMI-8226 leukemia) | TGI (RPMI-8226 leukemia) | GI50 (HL-60(TB) leukemia) | TGI (HL-60(TB) leukemia) | TGI (SNB-19 CNS) | GI50 (SF-539 CNS) | TGI (SF-539 CNS) | GI50 (U251 CNS) | TGI (U251 CNS) |
| --- | --- | --- | --- | --- | --- | --- | --- | --- | --- | --- | --- | --- | --- | --- | --- | --- | --- | --- | --- | --- |
| Cc1c(F)c(N)c2c(=O)cc(-c3ccc(NC(=O)[C@@H](N)CCCCN)c(F)c3)oc2c1F | 0.947 µM and 0.249 µM | 25.2 µM and 21.9 µM | 26.6 µM and 20.5 µM | 23.5 µM and 11.5 µM | 53.4 µM and 45.8 µM | 3.3 µM and 1.38 µM | 15.1 µM and 5.79 µM | 32.7 µM and 26.7 µM | 33.1 µM and 30.8 µM | 23.6 µM and 10 µM | 44.2 µM and 33.6 µM | 3.48 µM and 0.936 µM | 32.6 µM and 22.3 µM | 11.2 µM and 2.41 µM | 29.3 µM and 30.4 µM | > 78.7 µM and 49.5 µM | 17.1 µM and 5.78 µM | 33.3 µM and 13.6 µM | 2.96 µM and 0.842 µM | 21.9 µM and 15.1 µM |
| COc1ccc2c(c1)N=C1CSC(c3c(Cl)cccc3[N+](=O)[O-])N1C2 (centres undefined) | – | > 100 µM | > 100 µM | – | > 100 µM | – | > 100 µM | > 100 µM | > 100 µM | – | > 100 µM | – | 84.6 µM | – | 79.3 µM | > 100 µM | – | > 100 µM | – | > 100 µM |
| CC(C)CCCC(C)[C@H]1CC[C@H]2[C@@H]3CC[C@H]4C[C@@H](CCC=C(c5cc(Cl)c(O)c(C(=O)O)c5)c5cc(Cl)c(O)c(C(=O)O)c5)CC[C@]4(C)[C@H]3CC[C@]12C (some centres undefined) (tested in a mixture with another compound) | – | > 50 µM | > 50 µM | – | > 50 µM | – | > 50 µM | > 50 µM | > 50 µM | – | > 50 µM | – | > 50 µM | – | > 50 µM | > 50 µM | – | > 50 µM | – | > 50 µM |
| N/C(COc1ccc(Cl)cc1)=N\NC(=O)c1ccncc1 | – | > 100 µM | > 100 µM | – | > 100 µM | – | > 100 µM | > 100 µM | > 100 µM | – | > 100 µM | – | > 100 µM | – | > 100 µM | > 100 µM | – | > 100 µM | – | > 100 µM |
| CC(C)c1nc2c(Cl)c3ncccc3cc2[nH]c1=O | – | > 100 µM | > 100 µM | – | > 100 µM | – | > 100 µM | > 100 µM | > 100 µM | – | > 100 µM | – | > 100 µM | – | > 100 µM | > 100 µM | – | > 100 µM | – | > 100 µM |
| O=C(NCCN1CCCC1)c1cn2c(ccc3sc4ccccc4c(=O)c32)n1 | – | 24.2 µM | > 56.6 µM | – | 33.3 µM | – | 7.42 µM | 26.3 µM | 7.52 µM | – | 31.8 µM | – | 5.7 µM | – | 26.8 µM | 31.2 µM | – | 30.2 µM | – | > 51.7 µM |
| O=C1C(=C(C(=O)c2ccccc2)C(=O)c2ccccc2)OC(c2ccccc2)=C1C(=O)c1ccccc1 | – | 50.4 µM | 35.4 µM | – | 54.3 µM | – | 9.86 µM | 9.2 µM | 32.2 µM | – | 39.4 µM | – | 24.9 µM | – | 30.8 µM | > 100 µM | – | 22.3 µM | – | > 100 µM |
| CC1=NN(C(=O)c2ccccc2O)C(c2ccccc2Cl)C1C(=O)Nc1ccccc1 (centres undefined) | – | > 43.7 µM | > 100 µM | – | > 100 µM | – | > 85.7 µM | > 100 µM | > 100 µM | – | 51.9 µM | – | > 90.8 µM | – | 7.24 µM | > 100 µM | – | 5.68 µM | – | > 100 µM |
| NS(=O)(=O)c1nnc(/N=C(/CCC(=O)O)C(=O)O)s1 | – | > 100 µM | > 100 µM | – | > 100 µM | – | > 100 µM | > 100 µM | > 100 µM | – | > 100 µM | – | > 100 µM | – | > 100 µM | > 100 µM | – | > 100 µM | – | > 100 µM |
| C1=NCCNCCN=Cc2ccccc2OCc2cccc(n2)COc2ccccc21 | – | > 100 µM | > 68.7 µM | – | > 100 µM | – | > 82 µM | 99.7 µM | > 95.5 µM | – | > 80.7 µM | – | > 54.1 µM | – | 6.84 µM | > 100 µM | – | 11.1 µM | – | > 39.7 µM |
| O=C(OC(/C=C/c1ccccc1)P1(=O)N(Cc2ccccc2)[C@@H]2CCCC[C@H]2N1Cc1ccccc1)c1ccccc1 (some centres undefined) | – | > 100 µM | > 100 µM | – | > 100 µM | – | 6.47 µM | > 100 µM | 30.3 µM | – | > 75.5 µM | – | 6.53 µM | – | 7.43 µM | > 100 µM | – | > 100 µM | – | > 100 µM |
| CCCCCCCCCC1CC(=O)NCC(=O)NC(C(C)C)C(=O)NC(CC(C)C)C(=O)NC(C)C(=O)NC(C(C)C)C(=O)O1 (centres undefined) | – | > 64 µM | 49.8 µM | – | 53 µM | – | > 52.4 µM | 25.4 µM | > 38.6 µM | – | > 61.9 µM | – | > 86.8 µM | – | > 100 µM | > 48.2 µM | – | 43.4 µM | – | 29.7 µM |
| COC(=O)CC1(O)C(/C=C/c2ccccc2)C(C(=O)OC)C(=O)C(C(=O)OC)C1C(=O)OC (centres undefined) | – | > 100 µM | > 100 µM | – | > 100 µM | – | > 100 µM | > 100 µM | > 100 µM | – | > 100 µM | – | > 100 µM | – | > 100 µM | > 100 µM | – | > 100 µM | – | > 100 µM |
| COc1ccc(NS(=O)c2ccc(OC)cc2)cc1 (centres undefined) | – | > 100 µM | > 100 µM | – | > 100 µM | – | > 100 µM | > 100 µM | > 100 µM | – | 90.9 µM | – | > 100 µM | – | > 100 µM | > 100 µM | – | 32.5 µM | – | 34.2 µM |
| O=CC1C[C@@H](N2C(=O)O[C@@H](c3ccccc3)[C@H]2c2ccccc2)[C@@H]1COCc1ccccc1 (some centres undefined) | – | 52.3 µM | 51.4 µM | – | 72.3 µM | – | 84.4 µM | > 100 µM | 30.7 µM | – | 31.5 µM | – | > 100 µM | – | 56.7 µM | 37.6 µM | – | 37 µM | – | 30.1 µM |
| COc1cccc(C[C@H]2COC(=O)[C@]2(O)Cc2cccc(OC)c2)c1 | – | > 100 µM | > 100 µM | – | > 100 µM | – | > 100 µM | > 100 µM | > 100 µM | – | > 100 µM | – | > 100 µM | – | > 100 µM | > 100 µM | – | > 100 µM | – | > 100 µM |
| C/C1=C\CC/C(C)=C/C=C(/C(C)C)CC/C(C(=O)O)=C/CC1 | – | > 100 µM | > 100 µM | – | > 100 µM | – | > 100 µM | > 100 µM | > 100 µM | – | > 100 µM | – | 62 µM | – | > 100 µM | > 100 µM | – | > 100 µM | – | > 100 µM |
| Cc1ccc(/C(O)=C/c2nc3ccccc3[nH]c2=O)c(C)c1 | – | > 100 µM | > 100 µM | – | 59.2 µM | – | > 100 µM | 6.17 µM | > 46.6 µM | – | 98.8 µM | – | > 100 µM | – | > 100 µM | > 45.9 µM | – | 31.6 µM | – | 36.7 µM |
| CCOC(=O)c1nc2ccccc2nc1Oc1ccc(OC)cc1 | – | > 100 µM | > 100 µM | – | > 100 µM | – | > 100 µM | > 100 µM | > 100 µM | – | > 100 µM | – | > 100 µM | – | > 100 µM | > 100 µM | – | > 100 µM | – | > 100 µM |
| OC(C/C(=N\N=C(/CC(O)(C(F)(F)F)C(F)(F)F)c1ccccc1)c1ccccc1)(C(F)(F)F)C(F)(F)F | – | > 10 µM | > 10 µM | – | > 10 µM | – | > 10 µM | > 10 µM | > 10 µM | – | > 10 µM | – | > 10 µM | – | > 10 µM | > 10 µM | – | > 10 µM | – | > 10 µM |
| CN(C)/C=C/c1nnnn1-c1ccc(I)cc1 | – | 56.4 µM | 60.7 µM | – | 45.2 µM | – | 34.1 µM | 66 µM | 40.9 µM | – | 44.7 µM | – | 46.5 µM | – | 25.7 µM | 59.2 µM | – | 42.5 µM | – | 34.9 µM |
| CC(=O)OC[C@@H](OC(C)=O)[C@@H](OC(C)=O)[C@H]1OC[C@@H]2C[C@H]([C@H]1OC(C)=O)N(Cc1ccccc1)O2 | – | > 100 µM | > 100 µM | – | > 100 µM | – | > 100 µM | > 100 µM | > 100 µM | – | > 100 µM | – | > 100 µM | – | > 100 µM | > 100 µM | – | > 100 µM | – | > 100 µM |
| CC(=O)N1C2=CCCC2(C)c2ccccc21 (centres undefined) | – | > 100 µM | > 100 µM | – | > 100 µM | – | > 100 µM | > 100 µM | > 100 µM | – | > 100 µM | – | 45.6 µM | – | 83.6 µM | > 100 µM | – | > 100 µM | – | > 100 µM |
